What was measured:
[1] = target: T1, Progesterone receptor (Oryctolagus cuniculus, UniProt P06186); experiment: relative bond affinity for the progesterone receptor of rabbit's uterus; assay type: binding; settings: for relative bond affinity (RBA), Progesterone 2H: 2 hours incubation at 0° C.; for relative bond affinity (RBA), Progesterone 2H / relative bond affinity (RBA), Progesterone 24H: tritiated R 5020 5 nM, RBA=100 (CH)/(CX), reference cold progesterone; for relative bond affinity (RBA), Progesterone 24H: 24 hours incubation at 0° C.; for antiprogesterone activity: conclusion in words from the receptor binding study
T1 construct: from tissue; host or cells: uterus cytosol (105,000 g supernatant) of impuberal female rabbits treated with estradiol
T1 sequence (P06186 1-930): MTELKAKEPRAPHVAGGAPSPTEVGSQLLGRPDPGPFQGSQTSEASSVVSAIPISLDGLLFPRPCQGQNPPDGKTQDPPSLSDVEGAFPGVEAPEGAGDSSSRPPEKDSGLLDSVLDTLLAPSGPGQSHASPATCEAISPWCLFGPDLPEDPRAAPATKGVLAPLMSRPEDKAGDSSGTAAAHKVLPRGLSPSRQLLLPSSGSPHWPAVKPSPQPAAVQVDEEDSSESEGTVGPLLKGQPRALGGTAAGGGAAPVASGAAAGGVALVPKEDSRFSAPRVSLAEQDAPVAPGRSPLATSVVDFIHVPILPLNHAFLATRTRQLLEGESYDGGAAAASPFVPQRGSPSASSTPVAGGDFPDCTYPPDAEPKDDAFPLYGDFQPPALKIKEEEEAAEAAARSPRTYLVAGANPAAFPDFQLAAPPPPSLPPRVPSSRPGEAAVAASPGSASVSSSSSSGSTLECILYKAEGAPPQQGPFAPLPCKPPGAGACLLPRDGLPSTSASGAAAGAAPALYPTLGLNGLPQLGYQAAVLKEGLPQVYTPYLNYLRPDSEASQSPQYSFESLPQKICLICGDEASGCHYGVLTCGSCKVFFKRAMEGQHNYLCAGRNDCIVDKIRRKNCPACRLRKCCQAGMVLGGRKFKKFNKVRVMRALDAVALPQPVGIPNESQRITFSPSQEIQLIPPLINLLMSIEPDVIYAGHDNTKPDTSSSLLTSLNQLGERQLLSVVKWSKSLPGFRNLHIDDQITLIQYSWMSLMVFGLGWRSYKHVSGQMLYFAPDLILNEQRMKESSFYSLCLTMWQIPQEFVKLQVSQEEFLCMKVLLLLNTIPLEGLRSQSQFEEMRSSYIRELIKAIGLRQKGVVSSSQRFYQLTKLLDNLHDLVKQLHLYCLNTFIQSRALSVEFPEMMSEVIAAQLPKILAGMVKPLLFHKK
Description: (§1) 1) Measurement of the relative bond affinity for the receptors of steroid hormones:
Progesterone receptor of rabbit's uterus:
Impuberal female rabbits weighing about 1 kg received a cutaneous application of 25 ug of estradiol and five days after this treatment, the animals were killed and the uteruses were removed, weighed and homogenized at 0° C. using a Potter teflon-flask in a (TS) 10 mM Tris, 0.25M saccharose, HCl pH 7.4 buffer (1 g of tissue per 50 ml of TS). The homogenate was then ultra-centrifuged (105,000 g×90 mn) at 0° C. […] The concentration of bonded tritiated R 5020 (B) was then measured in each incubate by the technique of adsorption with carbon-dextran.
(§2) Calculation of the relative bond affinity:
(§3) The calculation of the relative bond affinity (RBA) was identical for all receptors. The following two curves were drawn: the percentage of bonded tritiated hormone B/T as a function of the logarithm of the concentration of the cold reference hormone and B/T as a function of the logarithm of the concentration of the cold product under test. The straight line of the equation:
(§4) B max=Percentage of bonded tritiated hormone for an incubation of this tritiated hormone at the concentration (T).
(§5) B min=Percentage of bonded tritiated hormone for an incubation of this tritiated hormone at the concentration (T) in the presence of a great excess of cold hormone (2500×10^-9 M).
(§6) The intersections of the straight line I50 and the curves allowed the evaluation of the concentrations of the cold reference hormone (CH) and of the cold product under test (CX) which inhibited by 50% the bonding of the tritiated hormone on the receptor. The relative bond affinity (RBA) of the product under test was determined by the equation RBA=100 (CH)/(CX)

[2] = target: T2, Androgen receptor (Rattus norvegicus, UniProt P15207); experiment: relative bond affinity for the androgen receptor of rat's prostate; assay type: binding; settings: tritiated testosterone, RBA=100 (CH)/(CX), reference cold testosterone; for relative bond affinity (RBA), Androgen 0,5H: half an hour incubation at 0° C.; for relative bond affinity (RBA), Androgen: incubation at 0° C.
T2 construct: The prostates were removed, weighed and homogenized; from tissue; host or cells: prostate cytosol (105,000 g supernatant) of castrated male rats
T2 sequence (P15207 1-902): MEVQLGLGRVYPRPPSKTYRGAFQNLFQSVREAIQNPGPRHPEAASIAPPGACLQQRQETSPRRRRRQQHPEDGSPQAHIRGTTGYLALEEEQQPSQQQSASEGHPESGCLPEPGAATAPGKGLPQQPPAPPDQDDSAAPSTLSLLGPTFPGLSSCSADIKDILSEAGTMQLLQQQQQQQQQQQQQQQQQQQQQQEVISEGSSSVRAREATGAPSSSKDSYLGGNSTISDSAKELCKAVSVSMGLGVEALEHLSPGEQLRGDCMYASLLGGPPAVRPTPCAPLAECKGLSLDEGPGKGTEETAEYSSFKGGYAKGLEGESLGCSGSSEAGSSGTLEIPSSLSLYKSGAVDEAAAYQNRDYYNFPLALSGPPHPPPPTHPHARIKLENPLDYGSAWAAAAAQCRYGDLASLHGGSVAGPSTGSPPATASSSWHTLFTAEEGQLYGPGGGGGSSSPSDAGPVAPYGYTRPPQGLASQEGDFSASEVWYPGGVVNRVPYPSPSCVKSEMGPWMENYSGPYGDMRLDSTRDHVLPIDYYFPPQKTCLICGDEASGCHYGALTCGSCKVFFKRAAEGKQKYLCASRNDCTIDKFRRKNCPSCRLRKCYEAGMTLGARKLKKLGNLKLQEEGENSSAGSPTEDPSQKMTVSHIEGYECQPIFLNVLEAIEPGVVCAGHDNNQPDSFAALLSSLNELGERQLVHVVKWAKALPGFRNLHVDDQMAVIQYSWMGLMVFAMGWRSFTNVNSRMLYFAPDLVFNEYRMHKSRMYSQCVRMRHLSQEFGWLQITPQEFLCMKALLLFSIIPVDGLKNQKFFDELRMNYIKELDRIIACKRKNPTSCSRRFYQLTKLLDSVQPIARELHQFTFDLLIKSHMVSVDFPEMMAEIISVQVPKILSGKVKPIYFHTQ
Description: as §1
Androgen receptor of rat's prostate
Male rats weighing 160 to 200 g were castrated and 24 hours after the castration, the animals were killed. The prostates were removed, weighed and homogenized at 0° C. using a Potter teflon-flask in a (TSDPM) 10 mM Tris, 0.25M saccharose, […] phenylmethanesulfonylfluoride, 20 mM molybdate, 2 mM dithiothreitol, HCl pH 7.4 buffer (1 g of tissue per 5 ml of TSDPM). The homogenate was ultracentrifuged (105,000 g×60 mn) at 0° C. and aliquots of the supernatant "cytosol", were incubated at 0° C. with a constant concentration in the presence of increasing concentrations (0-1000 nM) of cold testosterone or of the product under test. […]
as §2, §3, §4, §5, §6

SMILES | relative bond affinity (RBA), Androgen 0,5H [2] | relative bond affinity (RBA), Androgen [2] | relative bond affinity (RBA), Androgen 0,5H ([2]; listed as EX. 5) | relative bond affinity (RBA), Androgen ([2]; listed as EX. 5) | relative bond affinity (RBA), Androgen 0,5H ([2]; listed as EX. 6) | relative bond affinity (RBA), Androgen ([2]; listed as EX. 6) | relative bond affinity (RBA), Progesterone 2H [1] | relative bond affinity (RBA), Progesterone 24H [1] | relative bond affinity (RBA), Progesterone 24H ([1]; listed as EX. 5) | relative bond affinity (RBA), Progesterone 24H ([1]; listed as EX. 6) | antiprogesterone activity [1]
CC#C[C@]1(OC(=O)CCC(=O)O)CC[C@H]2[C@@H]3CCC4=CC(=O)CCC4=C3[C@@H](c3ccc(N(C)C)cc3)C[C@@]21C [Example 5, 11β-[4-dimethylamino-phenyl]-17-(1-propynyl)-Δ^4,9-estradien-3-one-17β-yl acid succinate] | – | – | 0,6 | 1 | – | – | 2 | – | 8 | – | –
CC#C[C@]1(OC(=O)CCC(=O)O)CC[C@H]2[C@@H]3CCC4=CC(=O)CCC4=C3[C@@H](c3ccc(N(C)C)cc3)C[C@@]21C [Example 6, Sodium 11β-[4-dimethylamino-phenyl]17α-(1-propynyl)-Δ^4,9 - estradien-3-one-17β-yl succinate] | – | – | – | – | 2,2 | 4,1 | 2 | – | – | 6 | –
CN(C)c1ccc([C@H]2C[C@@]3(C)[C@@H](CC[C@]3(C#CCl)OC(=O)CCC(=O)O)[C@@H]3CCC4=CC(=O)CCC4=C32)cc1 [Example 10, Sodium and 21-chloro-11β-[4-dimethylamino-phenyl]-19-nor-17α-Δ^4,9-pregnadien-3-one-20-yn-17β-yl succinate] | 1,9 | 8,6 | – | – | – | – | 3 | 13 | – | – | good
CC#C[C@]1(OC(=O)CCC(=O)O)CC[C@H]2[C@@H]3CCC4=CC(=O)CCC4=C3[C@@H](c3ccc(SC)cc3)C[C@@]21C [Example 12, Sodium and 11β-[4-methylthio-phenyl]-17α-(1-propynyl)-Δ^4,9 estradien-3-one-17β-yl succinate] | 0,8 | 0,3 | – | – | – | – | 1,2 | 3,6 | – | – | good

More lines, main results first:

relative bond affinity (RBA), Androgen 0,5H [2] | relative bond affinity (RBA), Androgen [2] | relative bond affinity (RBA), Androgen 0,5H ([2]; listed as EX. 5) | relative bond affinity (RBA), Androgen ([2]; listed as EX. 5) | relative bond affinity (RBA), Androgen 0,5H ([2]; listed as EX. 6) | relative bond affinity (RBA), Androgen ([2]; listed as EX. 6) | SMILES | relative bond affinity (RBA), Progesterone 2H [1] | relative bond affinity (RBA), Progesterone 24H [1] | relative bond affinity (RBA), Progesterone 24H ([1]; listed as EX. 5) | relative bond affinity (RBA), Progesterone 24H ([1]; listed as EX. 6) | antiprogesterone activity [1]
12 | 39 | – | – | – | – | CN(C)c1ccc([C@H]2C[C@@]3(C)[C@@H](CC[C@@]3(O)/C=C\COC(=O)CCC(=O)O)[C@@H]3CCC4=CC(=O)CCC4=C32)cc1 [Example 2, Sodium (Z)-3-[11β-[4-dimethylamino-phenyl]-Δ^4,9-estradien-17β-ol-3-one-17α-yl]-2-propenyl succinate] | 21 | 88 | – | – | –
5,1 | 2,8 | – | – | – | – | CN(C)c1ccc([C@H]2C[C@@]3(C)[C@@H](CC[C@@]3(O)C#CCOC(=O)CCC(=O)O)[C@@H]3CCC4=CC(=O)CCC4=C32)cc1 [Example 4, Sodium and 3-[11β-[4-dimethylamino-phenyl]-Δ^4,9-estradien-17β-ol-3-one-17α-yl]-2-propynyl succinate] | 14 | 26 | – | – | –
